Laboratory results reported in patent publication US6528535B2, “Bicyclic inhibitors of protein farnesyl transferase” (Warner-Lambert Company, priority 1997, dated 2003).
Structures can show the parent of a compound that is named as a salt.

Target: T1, SF9 affinity purified rat FPT (Rattus norvegicus, UniProt Q02293+Q04631)
T1 construct: made in house; host or cells: Sf9 insect cells
Assay: PFT (farnesyl protein transferase) inhibitory activity, radiolabeled farnesyl pyrophosphate / biotinyl peptide bead assay
Type: biochemical
Conditions: Examples 56-74, parallel synthesis array: single test; values adjusted to account for the purity of the sample; read-out: FTase, IC50
Method: The protein:farnesyl transferase (PFT) or farnesyl protein transferase (FPT) inhibitory activity of compounds of the present invention were assayed in HEPES buffer (pH 7.4) containing 5 mM potassium phosphate and 20 μM ZnCl2. The solution also contained 5 mM DTT (dithiothreitol), 5 mM MgCl2, and 0.1% PEG 8000. Assays were performed in 96 well plates (Wallec) and employed solutions composed of varying concentrations of a compound of the present invention in 10% DMSO (dimethylsulfoxide). Upon addition of both substrates, radiolabeled farnesyl pyrophosphate ([1^3H], specific activity 15-30 Ci/mmol, final concentration 134 nM) and (biotinyl)-Ahe-Thr-Lys-Cys-Val-Ile-Met ([3aS[3a alpha, 4 beta, 6a alpha]-hexahydro-2-oxo-1H-thieno[3,4-d]imidazole-5-pentanoic acid]-[7-aminoheptanoic acid]-Thr-Lys-Cys-Val-Ile-Met) (Ahe is 7-aminoheptanoic acid, Thr is threonine, Lys is lysine, Cys is cysteine, Val is valine, Ile is isoleucine, and Met is methionine) (final concentration 0.2 μM), the enzyme reaction was started by addition of SF9 affinity purified rat FPT. After incubation at 30° C. for 30 minutes, the reaction was terminated by diluting the reaction 2.5-fold with a stop buffer containing 1.5 M magnesium acetate, 0.2 M H3PO4, 0.5% BSA (bovine serum albumin), and strepavidin beads (Amersham) at a concentration of 1.3 mg/mL. After allowing the plate to settle for 30 minutes at room temperature, radioactivity was quantitated on a microbeta counter (Model 1450, Wallec). The assay was also carried out without 5 mM potassium phosphate.

Structure (SMILES)	IC50 [nM]
COc1ccc(OC)c(/C=C2\CCc3cc(OCCn4ccnc4)ccc3C2=O)c1 [Example 65]	630
O=C1/C(=C/c2ccc(Cl)c(Cl)c2)CCc2cc(OCCn3ccnc3)ccc21 [Example 63, 2-[(E)-1-(3,4-Dichlorophenyl)methylidene]-6-[2-(1H-1-imidazolyl)ethoxy]-1,2,3,4-tetrahydro-1-naphthalenone]	890
O=C1/C(=C/c2cc(Cl)cc(Cl)c2)CCc2cc(OCCn3ccnc3)ccc21 [Example 64, 2-[(E)-1-(3,5-Dichlorophenyl)methylidene]-6-[2-(1H-1-imidazolyl)ethoxy]-1,2,3,4tetrahydro-1-naphthalenone]	570
O=C1/C(=C/c2ccc3c(c2)OCO3)CCc2cc(OCCn3ccnc3)ccc21 [Example 59, 2-[(E)-1-(1,3-Benzodioxol-5-yl)methylidene]-6-[2-(1H-1-imidazolyl)ethoxy]-1,2,3,4-tetrahydro-1-naphthalenone]	210
COc1cc(OC)c(/C=C2\CCc3cc(OCCn4ccnc4)ccc3C2=O)c(OC)c1 [Example 68, 6-[2-(1H-1-Imidazolyl)ethoxy]-2-[(E)-1-(2,4,6-trimethoxyphenyl)methylidene]-1,2,3,4-tetrahydro-1-naphthalenone]	590
COc1ccc(/C=C2\CCc3cc(OCCn4ccnc4)ccc3C2=O)c(OC)c1OC [Example 69, 6-[2-(1H-1-Imidazolyl)ethoxy]-2-[(E)-1-(2,3,4-trimethoxyphenyl)methylidene]-1,2,3,4-tetrahydro-1-naphthalenone]	1300
O=C1/C(=C/c2ccc(F)cc2)CCc2cc(OCCn3ccnc3)ccc21 [Example 60, 2-[(E)-1-(4-Fluorophenyl)methylidene]-6-[2-(1H-1-imidazolyl)ethoxy]-1,2,3,4-tetrahydro-1-naphthalenone]	180
O=C1/C(=C/c2c(Cl)cccc2Cl)CCc2cc(OCCn3ccnc3)ccc21 [Example 62, 2-[(E)-1-(2,6-Dichlorophenyl)methylidene]-6-[2-(1H-1-imidazolyl)ethoxy]-1,2,3,4-tetrahydro-1-naphthalenone]	540
O=C1/C(=C/c2cccc(Cl)c2Cl)CCc2cc(OCCn3ccnc3)ccc21 [Example 61, 2-[(E)-1-(2,3-Dichlorophenyl)methylidene]-6-[2-(1H-1-imidazolyl)ethoxy]-1,2,3,4-tetrahydro-1-naphthalenone]	570
CN(C)c1ccc(/C=C2\CCc3cc(OCCn4ccnc4)ccc3C2=O)cc1 [Example 71]	110
O=C1/C(=C/c2ccc(Cl)cc2)CCc2cc(OCCn3ccnc3)ccc21 [Example 58, 2-[(E)-1-(4-Chlorophenyl)methylidene]-6-[2-(1H-1-imidazolyl)ethoxy]-1,2,3,4-tetrahydro-1-naphthalenone]	170
COc1cccc(/C=C2\CCc3cc(OCCn4ccnc4)ccc3C2=O)c1OC [Example 66, 2-[(E)-1-(2,3-Dimethoxyphenyl)methylidene]-6-[2-(1H-1-imidazolyl)ethoxy]-1,2,3,4-tetrahydro-1-naphthalenone]	1840

Now from value to molecule:

IC50 [nM]	Structure (SMILES)
320	O=C1/C(=C/c2ccc(I)cc2)CCc2cc(OCCn3ccnc3)ccc21 [Example 70, 6-[2-(1H-1-Imidazolyl)ethoxy]-2-[(E)-1-(4-iodophenyl)methylidene]-1,2,3,4-tetrahydro-1-naphthalenone]
1200	CC(C)(C)c1ccc(/C=C2\CCc3cc(OCCn4ccnc4)ccc3C2=O)cc1 [Example 72, 2-(E)-1-[4-(tert-Butyl)phenyl]methylidene-6-[2-(1H-1-imidazolyl)ethoxy]-1,2,3,4-tetrahydro-1-naphthalenone]
360	O=C1/C(=C/c2ccccc2Cl)CCc2cc(OCCn3ccnc3)ccc21 [Example 56, 2-[(E)-1-(2-Chlorophenyl)methylidene]-6-[2-(1H-1-imidazolyl)ethoxy]-1,2,3,4-tetrahydro-1-naphthalenone]
1140	COc1cccc(/C=C2\CCc3cc(OCCn4ccnc4)ccc3C2=O)c1 [Example 73, 6-[2-(1H-1-Imidazolyl)ethoxy]-2-[(E)-1-(3-methoxyphenyl)methylidene]-1,2,3,4-tetrahydro-1-naphthalenone]
420	O=C1/C(=C/c2cccc(Cl)c2)CCc2cc(OCCn3ccnc3)ccc21 [Example 57, 2-[(E)-1-(3-Chlorophenyl)methylidene]-6-[2-(1H-1-imidazolyl)ethoxy]-1,2,3,4-tetrahydro-1-naphthalenone]
710	O=C1/C(=C/c2ccccc2C(F)(F)F)CCc2cc(OCCn3ccnc3)ccc21 [Example 67, 6-[2-(1H-1-Imidazolyl)ethoxy]-2-(E)-1-[2-(trifluoromethyl)phenyl]methylidene-1,2,3,4-tetrahydro-1-naphthalenone]

Same assay, conditions: average of two tests unless n is given in parentheses; read-out: FTase, IC50

Structure (SMILES)	IC50 [nM]
O=C1CCCc2cc(OCCc3c[nH]cn3)ccc21 [Example 27, 6-[2-(1H-Imidazole4-yl)-ethoxy]-3,4-dihydro-2H-naphthalen-1-one, monohydrochloride]	1790
O=C1C(=Cc2cccs2)CCc2cc(OC(Cn3ccnc3)c3ccccc3)ccc21 (centres unmarked) [Example 81, 6-(2-Imidazol-1-yl-1-phenyl-ethoxy)-2-thiophen-2-ylmethylene-3,4-dihydro-2H-naphthalen-1-one]	37
CC(=C1CCc2cc(OCCc3c[nH]cn3)ccc2C1=O)c1ccccc1 [Example 40, 6-[2-(1H-Imidazole-4-yl)-ethoxy]-2-(1-phenyl-ethylidene)-3,4-dihydro-2H-naphthalen-1-one]	4700
Cc1nccn1CCOc1ccc2c(c1)CCCC2=O [Example 2, 6-[2-(2-Methyl-imidazole-1-yl)-ethoxy]-3,4-dihydro-2H-naphthalen-1-one]	8400
O=C1/C(=C/c2cccs2)COc2cc(OCCn3ccnc3)ccc21 [Example 52, 7-[2-(1H-1-Imidazolyl)ethoxy]-3-[(E)-1-(2-thienyl)methylidene]4-chromanone]	220
NC(=O)c1ccc(C=C2CCc3cc(OCCc4c[nH]cn4)ccc3C2=O)cc1 [Example 33, 4-{6-[2-(1H-Imidazole-4-yl)-ethoxy]-1-oxo-3,4-dihydro-1H-naphthalen-2-ylidenemethyl}-benzamide, monohydrochloride]	7300
O=C(O)c1ccc(C=C2CCc3cc(OCCc4c[nH]cn4)ccc3C2=O)cc1 [Example 35, 4-{6-[2-(1H-Imidazole-4-yl)-ethoxy]-1-oxo-3,4-dihydro-1H-naphthalen-2-ylidenemethyl}-benzoic acid, ditrifluoroacetate]	2000
O=C(O)c1ccc(C=C2CCc3cc(OCCc4c[nH]cn4)ccc3C2=O)s1 [Example 38, 5-{6-[2-(1H-Imidazol-4-yl)-ethoxy]-1-oxo-3,4-dihydro-1H-naphthalen-2-ylidenemethyl}-thiophene-2-carboxylic acid]	4300
O=C1/C(=C/C2CCCCC2)CCc2cc(OCCn3ccnc3)ccc21 [Example 45, 2-[(E)-1-Cyclohexylmethylidene]-6-[2-(1H-1-imidazolyl)ethoxy]-1,2,3,4-tetrahydro-1-naphthalenone, hydrochloride]	5800
O=C1C(=Cc2ccc(Cl)s2)CCc2cc(OCCc3c[nH]cn3)ccc21 [Example 36, 2-(5-Chloro-thiophen-2-ylmethylene)-6-[2-(1H-imidazole-4-yl)-ethoxy]-3,4-dihydro-2H-naphthalen-1-one, hydrochloride]	3500

Now from value to molecule:

IC50 [nM]	Structure (SMILES)
2400	O=C1C(=Cc2ccccn2)CCc2cc(OCCn3ccnc3)ccc21 [Example 3, 6-(2-Imidazole-1-yl-ethoxy)-2-pyridin-2-ylmethylene-3,4-dihydro-2H-naphthalen-1-one]
73	O=C1CCCc2cc(OC(Cn3ccnc3)c3ccccc3)ccc21 (centres unmarked) [Example 80, 6-[2-(1H-1-Imidazolyl)-1-phenylethoxy]-1,2,3,4-tetrahydro-1-naphthalenone]
240	O=C1C(=Cc2ccccc2)CCc2cc(OCCn3ccnc3)ccc21 [Example 9, 2-Benzylidene-6-(2-imidazole-1-yl-ethoxy)-3,4-dihydro-2H-naphthalen-1-one]
2000	O=C1CCCc2cc(OCCn3ccnc3)ccc21 [Example 1, 6-(2-Imidazole-1-yl-ethoxy)-3,4-dihydro-2H-naphthalen-1-one]
600	CC(C)(CNC(=O)CON=C1CCCc2cc(OCCn3ccnc3)ccc21)c1ccccc1 [Example 55, 2-[6-(2-Imidazol-1-yl-ethoxy)-3,4-dihydro-2H-naphthalen-1-ylideneaminooxy]-N-(2-methyl-2-phenyl-propyl)-acetamide]
420	O=C(CON=C1CCCc2cc(OCCn3ccnc3)ccc21)NCC1(c2ccccc2)CCC1 [Example 82, 2-[6-(2-Imidazol-1-yl-ethoxy)-3,4-dihydro-2H-naphthalen-1-ylideneaminooxy]-N-(1-phenyl-cyclobutylmethyl)-acetamide]
2500	COc1ccccc1C=C1CCc2cc(OCCn3ccnc3)ccc2C1=O [Example 25, 6-(2-Imidazol-1-yl-ethoxy)-2-(2-methoxy-benzylidene)-3,4-dihydro-2H-naphthalen-1-one]
